Experiment: mn = molality of the nth substance listed, in mol/kg
Conditions: 101 kPa, Liquid; for viscosity: Capillary tube (Ostwald / Ubbelohde) method; for speed of sound: Pulse-echo method; for mass density: Vibrating tube method

CCCCCCCCCCCCc1ccccc1S(=O)(=O)[O-].[Na+] [sodium dodecylbenzenesulfonate (ILL DEFINED!)] + O
Conditions	mass density, 298.15 K [kg/m3]	mass density, 308.15 K [kg/m3]	speed of sound, 298.15 K [m/s]	speed of sound, 308.15 K [m/s]	viscosity, 298.15 K [mPa·s]	viscosity, 308.15 K [mPa·s]
m1 = 0.05	999.92	996.76	1498.7	1522.7	0.999	0.795
m1 = 0.1	1002.75	999.44	1500	1523.5	1.106	0.868

Source: the NIST ThermoML archive (doi:10.1021/je800934r)
